Test results taken from ChEMBL document CHEMBL1201862, “PubChem BioAssay data set” (2004).
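Results reflect a 48-hour exposure of cells in 96-well plates to compound at five concentrations. The concentration for 50% growth inhibition is given as GI50.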 The source made the active and inactive calls. No stated cut-off is given here; in the data, active = GI50 up to about 1.1 µM and inactive = higher.

Key:
Experiment in all cases: growth of human tumour cells (NCI), 48 h
CCRF-CEM = system: CCRF-CEM
DU-145 = system: DU-145
EKVX = system: EKVX
Hs-578T = system: Hs-578T
K562 = system: K562
M14 = system: M14
MCF7 = system: MCF7
MDA-MB-435 = system: MDA-MB-435
NCI-H23 = system: NCI-H23
OVCAR-3 = system: OVCAR-3
OVCAR-5 = system: OVCAR-5
OVCAR-8 = system: OVCAR-8
PC-3 = system: PC-3
RPMI-8226 = system: RPMI-8226
SN12C = system: SN12C
SW-620 = system: SW-620
UACC-257 = system: UACC-257
UO-31 = system: UO-31
Malme-3M = system: Malme-3M
RXF 393 = system: RXF 393

| SMILES | GI50 (CCRF-CEM) | GI50 (DU-145) | GI50 (EKVX) | GI50 (Hs-578T) | GI50 (K562) | GI50 (M14) | GI50 (MCF7) | GI50 (MDA-MB-435) | GI50 (NCI-H23) | GI50 (OVCAR-3) | GI50 (OVCAR-5) | GI50 (OVCAR-8) | GI50 (PC-3) | GI50 (RPMI-8226) | GI50 (SN12C) | GI50 (SW-620) | GI50 (UACC-257) | GI50 (UO-31) | GI50 (Malme-3M) | GI50 (RXF 393) |
| --- | --- | --- | --- | --- | --- | --- | --- | --- | --- | --- | --- | --- | --- | --- | --- | --- | --- | --- | --- | --- |
| COc1ccc(S(=O)(=O)O)cc1NS(=O)(=O)c1ccc(C)cc1 | > 100 µM (inactive) | > 100 µM (inactive) | > 100 µM (inactive) | > 100 µM (inactive) | > 100 µM (inactive) | > 100 µM (inactive) | > 100 µM (inactive) | > 100 µM (inactive) | > 100 µM (inactive) | > 100 µM (inactive) | > 100 µM (inactive) | > 100 µM (inactive) | > 100 µM (inactive) | > 100 µM (inactive) | > 100 µM (inactive) | > 100 µM (inactive) | > 100 µM (inactive) | > 100 µM (inactive) |  |  |
| C=C1CC(COc2ccc3c(C)c(C)c(=O)oc3c2C)(c2ccccc2)OC1=O (centres undefined) | 0.333 µM (active) | 2.07 µM (inactive) | 7.55 µM (inactive) | 4.26 µM (inactive) | 0.671 µM (active) | 1.57 µM (inactive) | 1.42 µM (inactive) | 2.7 µM (inactive) | 2.04 µM (inactive) | 2.88 µM (inactive) | 9.02 µM (inactive) | 1.72 µM (inactive) | 1.73 µM (inactive) | 0.486 µM (active) | 3.39 µM (inactive) | 1.22 µM (inactive) | 0.531 µM (active) | 2.77 µM (inactive) | 1.62 µM (inactive) |  |
| COc1ccc2oc(=O)c(CC=C(C)C)c(O)c2c1C | > 100 µM (inactive) | > 100 µM (inactive) | > 100 µM (inactive) | > 100 µM (inactive) | > 100 µM (inactive) | > 100 µM (inactive) | > 100 µM (inactive) | > 100 µM (inactive) | > 100 µM (inactive) | > 100 µM (inactive) | > 100 µM (inactive) | > 100 µM (inactive) | > 100 µM (inactive) | > 100 µM (inactive) | > 100 µM (inactive) | > 100 µM (inactive) | > 100 µM (inactive) | > 100 µM (inactive) | > 100 µM (inactive) |  |
| Cc1ccc(N2C(=O)C(O)=C(C(=O)C(C)(C)C)C2c2ccc([N+](=O)[O-])cc2)cc1 (centres undefined) | 26.3 µM (inactive) | 28.4 µM (inactive) | 26.9 µM (inactive) | 16.9 µM (inactive) | 23.9 µM (inactive) | 18.2 µM (inactive) | 17.7 µM (inactive) | 17.4 µM (inactive) | 15.4 µM (inactive) | 19.6 µM (inactive) | 49.2 µM (inactive) | 18.9 µM (inactive) | 29.9 µM (inactive) | 10.9 µM (inactive) | 15.4 µM (inactive) |  | 15.8 µM (inactive) | 29.6 µM (inactive) | 19 µM (inactive) |  |
| FC(F)(F)c1ccccc1C1SCC2=Nc3ccccc3CN21 (centres undefined) | 26.5 µM (inactive) | 12.8 µM (inactive) | 12 µM (inactive) | 12.3 µM (inactive) | 21.8 µM (inactive) | 12.2 µM (inactive) | 13.6 µM (inactive) | 22.5 µM (inactive) | 11.9 µM (inactive) |  | 12 µM (inactive) | 16.9 µM (inactive) | 14.1 µM (inactive) | 24.8 µM (inactive) | 27 µM (inactive) | 32.4 µM (inactive) | 15.9 µM (inactive) | 11.8 µM (inactive) |  | 10.2 µM (inactive) |
| NC(=S)c1cccc(C2Nc3ccccc3O2)c1 (centres undefined) |  | > 100 µM (inactive) | 0.019 µM (active) | > 100 µM (inactive) | 30.5 µM (inactive) | > 100 µM (inactive) | 56.9 µM (inactive) | 43 µM (inactive) | 49.9 µM (inactive) | > 100 µM (inactive) | > 100 µM (inactive) | > 100 µM (inactive) | 51.2 µM (inactive) | < 0.01 µM (active) | < 0.01 µM (active) | 75.7 µM (inactive) | 22.1 µM (inactive) | > 100 µM (inactive) | > 100 µM (inactive) | > 100 µM (inactive) |
| CC(C)=NOC(=O)Nc1cccc2c1OCO2 |  | > 100 µM (inactive) | > 100 µM (inactive) | 28.8 µM (inactive) |  | > 100 µM (inactive) | > 100 µM (inactive) | > 100 µM (inactive) | > 100 µM (inactive) | > 100 µM (inactive) | > 100 µM (inactive) | > 100 µM (inactive) | > 100 µM (inactive) | > 100 µM (inactive) | > 100 µM (inactive) | > 100 µM (inactive) | > 100 µM (inactive) | > 100 µM (inactive) | > 100 µM (inactive) | > 100 µM (inactive) |
